Experimental data as given in patent US11077090B2, “Compounds and compositions and uses thereof” (Sunovion Pharmaceuticals Inc., priority 2016, dated 2021).
Where two headings read alike, the source gives them in different places.

System: compound-treated mice
Experiment: Neuropharmacological assay (SmartCube): behavioral activity signature and minimal effective dose
Type: in vivo
Conditions: for minimal effective dose: Mus musculus, ip; for minimal effective dose / Potency: minimal effective dose (MED), binned: MED = dose having 50% or more total activity; for AD: ADHD (probability of activity signature) / AG: analgesic (probability of activity signature) / AX: anxiolytic (probability of activity signature) / CE: cognitive enhancer (probability of activity signature) / DP: anti-depressant (probability of activity signature) / MS: mood stabilizer (probability of activity signature) / PS: anti-psychotic (probability of activity signature) / SD: sedative hypnotic (probability of activity signature) / UN: uncharacterized CNS activity (probability of activity signature): i.p. 15 min before test, most efficacious dose(s)
In short: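 Video-recorded behavior is compared algorithmically against a reference-compound database, yielding class probabilities (best dose reported). Compounds given i.p. in NMP/PEG/propylene glycol 15 min pre-test at 3 doses; potency as MED, the dose (mpk, range usually 0.3–30) reaching ≥50% total activity.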

[1] = read-out: Potency: minimal effective dose (MED), binned
[2] = read-out: Potency: minimal effective dose (MED)

Compound: CCN(C)C(=O)Oc1ccc2c(c1)C(N)COC2.Cl (stereo not shown) [Example 277, 4-Aminoisochroman-6-yl ethyl(methyl)carbamate hydrochloride]
- minimal effective dose [1]: > 30 mg/kg
- AD: ADHD (probability of activity signature): + (LOQ ≤ + <5%)
- AG: analgesic (probability of activity signature): + (LOQ ≤ + <5%)
- AX: anxiolytic (probability of activity signature): + (LOQ ≤ + <5%)
- CE: cognitive enhancer (probability of activity signature): + (LOQ ≤ + <5%)
- DP: anti-depressant (probability of activity signature): + (LOQ ≤ + <5%)
- MS: mood stabilizer (probability of activity signature): + (LOQ ≤ + <5%)
- PS: anti-psychotic (probability of activity signature): + (LOQ ≤ + <5%)
- SD: sedative hypnotic (probability of activity signature): + (LOQ ≤ + <5%)
- UN: uncharacterized CNS activity (probability of activity signature): + (LOQ ≤ + <5%)

Compound: CC[C@H]1OCc2ccc(C)cc2[C@H]1N (single isomer, unassigned) [Example 180]
- minimal effective dose [1]: 3 to 10 mg/kg
- AD: ADHD (probability of activity signature): + (LOQ ≤ + <5%)
- AG: analgesic (probability of activity signature): ++ (5% ≤ ++ <25%)
- AX: anxiolytic (probability of activity signature): ++ (5% ≤ ++ <25%)
- CE: cognitive enhancer (probability of activity signature): ++ (5% ≤ ++ <25%)
- DP: anti-depressant (probability of activity signature): ++ (5% ≤ ++ <25%)
- MS: mood stabilizer (probability of activity signature): + (LOQ ≤ + <5%)
- PS: anti-psychotic (probability of activity signature): ++ (5% ≤ ++ <25%)
- SD: sedative hypnotic (probability of activity signature): + (LOQ ≤ + <5%)
- UN: uncharacterized CNS activity (probability of activity signature): ++++ (50% ≤ ++++)

Compound: CC(C)[C@@H]1OCc2ccccc2[C@H]1N.Cl (relative stereo) [Example 274, trans-3-Isopropylisochroman-4-amine hydrochloride]
- Potency: minimal effective dose (MED), binned (hydrochloride): A (≤3 mpk)
- AD: ADHD (probability of activity signature): + (LOQ ≤ + <5%)
- AG: analgesic (probability of activity signature): + (LOQ ≤ + <5%)
- AX: anxiolytic (probability of activity signature): + (LOQ ≤ + <5%)
- CE: cognitive enhancer (probability of activity signature): + (LOQ ≤ + <5%)
- DP: anti-depressant (probability of activity signature): ++ (5% ≤ ++ <25%)
- PS: anti-psychotic (probability of activity signature): ++ (5% ≤ ++ <25%)
- UN: uncharacterized CNS activity (probability of activity signature): ++ (5% ≤ ++ <25%)
- MS: mood stabilizer (probability of activity signature) (hydrochloride): +++ (25% ≤ +++ <50%)
- SD: sedative hypnotic (probability of activity signature) (hydrochloride): ++ (5% ≤ ++ <25%)

Compound: Cl.NC1COCc2ccc3c(c21)C1CCC3C1 (single isomer, unassigned) [Example 162]
- Potency: minimal effective dose (MED), binned: B (>3 to 10 mpk)
- AD: ADHD (probability of activity signature): + (LOQ ≤ + <5%)
- AG: analgesic (probability of activity signature): ++ (5% ≤ ++ <25%)
- AX: anxiolytic (probability of activity signature): +++ (25% ≤ +++ <50%)
- CE: cognitive enhancer (probability of activity signature): ++ (5% ≤ ++ <25%)
- DP: anti-depressant (probability of activity signature): + (LOQ ≤ + <5%)
- MS: mood stabilizer (probability of activity signature): + (LOQ ≤ + <5%)
- PS: anti-psychotic (probability of activity signature): ++ (5% ≤ ++ <25%)
- SD: sedative hypnotic (probability of activity signature): + (LOQ ≤ + <5%)
- UN: uncharacterized CNS activity (probability of activity signature): +++ (25% ≤ +++ <50%)

Compound: C[C@@H]1OCc2ccc(C(F)(F)F)cc2[C@@H]1N.Cl [Example 228]
- minimal effective dose [1]: 10 to 30 mg/kg
- AD: ADHD (probability of activity signature): + (LOQ ≤ + <5%)
- AG: analgesic (probability of activity signature): ++ (5% ≤ ++ <25%)
- AX: anxiolytic (probability of activity signature): ++ (5% ≤ ++ <25%)
- CE: cognitive enhancer (probability of activity signature): + (LOQ ≤ + <5%)
- DP: anti-depressant (probability of activity signature): ++ (5% ≤ ++ <25%)
- MS: mood stabilizer (probability of activity signature): + (LOQ ≤ + <5%)
- PS: anti-psychotic (probability of activity signature): ++ (5% ≤ ++ <25%)
- SD: sedative hypnotic (probability of activity signature): + (LOQ ≤ + <5%)
- UN: uncharacterized CNS activity (probability of activity signature): +++ (25% ≤ +++ <50%)

Compound: C[C@@H]1OCc2ccccc2[C@H]1N.Cl (relative stereo) [Example 73, trans-3-methylisochroman-4-amine hydrochloride]
- minimal effective dose [2]: < 3 mg/kg
- AD: ADHD (probability of activity signature): + (LOQ ≤ + <5%)
- AG: analgesic (probability of activity signature): ++ (5% ≤ ++ <25%)
- AX: anxiolytic (probability of activity signature): +++ (25% ≤ +++ <50%)
- CE: cognitive enhancer (probability of activity signature): ++ (5% ≤ ++ <25%)
- DP: anti-depressant (probability of activity signature): ++ (5% ≤ ++ <25%)
- MS: mood stabilizer (probability of activity signature): + (LOQ ≤ + <5%)
- PS: anti-psychotic (probability of activity signature): ++ (5% ≤ ++ <25%)
- SD: sedative hypnotic (probability of activity signature): + (LOQ ≤ + <5%)
- UN: uncharacterized CNS activity (probability of activity signature): +++ (25% ≤ +++ <50%)

Compound: C[C@H]1OCc2ccccc2[C@H]1N (single isomer, unassigned) [Example 154]
- minimal effective dose [2]: 3 to 10 mg/kg
- AD: ADHD (probability of activity signature): + (LOQ ≤ + <5%)
- AG: analgesic (probability of activity signature): ++ (5% ≤ ++ <25%)
- AX: anxiolytic (probability of activity signature): ++ (5% ≤ ++ <25%)
- CE: cognitive enhancer (probability of activity signature): ++ (5% ≤ ++ <25%)
- DP: anti-depressant (probability of activity signature): + (LOQ ≤ + <5%)
- MS: mood stabilizer (probability of activity signature): + (LOQ ≤ + <5%)
- PS: anti-psychotic (probability of activity signature): ++ (5% ≤ ++ <25%)
- SD: sedative hypnotic (probability of activity signature): ++ (5% ≤ ++ <25%)
- UN: uncharacterized CNS activity (probability of activity signature): ++++ (50% ≤ ++++)

Compound: C[C@@H]1OCc2cccc(F)c2[C@@H]1N.Cl [Example 217]
- minimal effective dose [1]: 10 to 30 mg/kg
- AD: ADHD (probability of activity signature): + (LOQ ≤ + <5%)
- AG: analgesic (probability of activity signature): + (LOQ ≤ + <5%)
- AX: anxiolytic (probability of activity signature): +++ (25% ≤ +++ <50%)
- CE: cognitive enhancer (probability of activity signature): ++ (5% ≤ ++ <25%)
- DP: anti-depressant (probability of activity signature): ++ (5% ≤ ++ <25%)
- MS: mood stabilizer (probability of activity signature): + (LOQ ≤ + <5%)
- PS: anti-psychotic (probability of activity signature): ++ (5% ≤ ++ <25%)
- SD: sedative hypnotic (probability of activity signature): + (LOQ ≤ + <5%)
- UN: uncharacterized CNS activity (probability of activity signature): ++++ (50% ≤ ++++)

Compound: CC(C)[C@@H]1OCc2ccccc2[C@H]1N.Cl (relative stereo) [Example 257, trans-3-Isopropylisochroman-4-amine hydrochloride]
- minimal effective dose [1]: 3 to 10 mg/kg
- AD: ADHD (probability of activity signature): + (LOQ ≤ + <5%)
- AG: analgesic (probability of activity signature): + (LOQ ≤ + <5%)
- AX: anxiolytic (probability of activity signature): + (LOQ ≤ + <5%)
- CE: cognitive enhancer (probability of activity signature): + (LOQ ≤ + <5%)
- DP: anti-depressant (probability of activity signature): ++ (5% ≤ ++ <25%)
- PS: anti-psychotic (probability of activity signature): ++ (5% ≤ ++ <25%)
- UN: uncharacterized CNS activity (probability of activity signature): ++ (5% ≤ ++ <25%)
- MS: mood stabilizer (probability of activity signature) (hydrochloride): ++ (5% ≤ ++ <25%)
- SD: sedative hypnotic (probability of activity signature) (hydrochloride): +++ (25% ≤ +++ <50%)

Compound: NC1COCc2ccc(F)cc21 (stereo not shown) [Example 6]
- minimal effective dose [2]: 3 to 10 mg/kg
- AD: ADHD (probability of activity signature): + (LOQ ≤ + <5%)
- AG: analgesic (probability of activity signature): ++ (5% ≤ ++ <25%)
- AX: anxiolytic (probability of activity signature): ++ (5% ≤ ++ <25%)
- CE: cognitive enhancer (probability of activity signature): + (LOQ ≤ + <5%)
- DP: anti-depressant (probability of activity signature): ++ (5% ≤ ++ <25%)
- MS: mood stabilizer (probability of activity signature): + (LOQ ≤ + <5%)
- PS: anti-psychotic (probability of activity signature): + (LOQ ≤ + <5%)
- SD: sedative hypnotic (probability of activity signature): ++ (5% ≤ ++ <25%)
- UN: uncharacterized CNS activity (probability of activity signature): ++++ (50% ≤ ++++)
